24 molecules from PubChem BioAssay (NCI) can be followed below.

What all share (assay): growth of human tumour cells (NCI), 48 h
Assay [1] has as its system A549 NSCLC.
Assay [2] deals with CCRF-CEM leukemia.
Assay [3] relates to COLO 205 colon.
Assay [4] deals with K-562 leukemia.
Assay [5] relates to MALME-3M melanoma.
The subject of assay [6] is RXF 393 renal.
Assay [7] concerns UACC-62 melanoma.
The subject of assay [8] is HCT-116 colon.

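Assay format: 96-well plates, 48-hour exposure. GI50 marks 50% less growth. TGI: concentration producing complete growth inhibition.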

In the case of `CC1(C)OC2OC(COC(=O)C(c3ccccc3)c3ccccc3)C3OC(C)(C)OC3C2O1` (configuration not stated), the TGI in assay [1], in assay [2], in assay [3], in assay [4], in assay [5] and in assay [6] was more than 100 µM throughout. The TGI in assay [7] is more than 100 µM.

Regarding `Nc1c(C(=O)Nc2ccccc2O)[n+]([O-])c2ccccc2[n+]1[O-]`, the TGI in assay [1], in assay [3], in assay [8], in assay [4] and in assay [5] was more than 100 µM in each case.

Take `CC(C)=CC(=O)CC(=O)C(=O)NCCNC(=O)C(=O)CC(=O)C=C(C)C`: the TGI in assay [1], in assay [3], in assay [8], in assay [5], in assay [6] and in assay [7] was more than 50 µM in each case.

Regarding `O=C(Nc1ccc(Cl)c(Cl)c1)C1C(=O)N(c2ccc(Cl)c(Cl)c2)C(=O)/C1=N\O` (configuration not stated), the TGI in assay [1] is more than 100 µM; in assay [2], more than 100 µM; in assay [3], 41.9 µM; in assay [8], more than 100 µM; in assay [4], more than 100 µM; in assay [5], more than 100 µM. This molecule returned a TGI in assay [7] of more than 100 µM.

In the case of `C1CCN2CC3CONC3C2C1` (configuration not stated), the TGI in assay [1], in assay [2], in assay [3], in assay [8], in assay [4] and in assay [5] was more than 100 µM in each case. In addition, the TGI in assay [6] and in assay [7] was more than 100 µM each time.

For the molecule `CCOc1ccc(/C=C2/C(=O)N=C(N)N=C2N)cc1OCC`, the TGI in assay [1], in assay [2], in assay [3], in assay [8], in assay [4] and in assay [5] was more than 100 µM throughout. For the same molecule, the TGI in assay [6] and in assay [7] was more than 100 µM in each case.

`Nc1c(-c2nc3ccccc3s2)[n+]([O-])c2ccccc2[n+]1[O-]`: the TGI in assay [1] was more than 100 µM; in assay [2] it was more than 100 µM; in assay [3], more than 100 µM; in assay [8], 63.9 µM; in assay [4] it was more than 100 µM; in assay [5] it was 91.7 µM. Further, the TGI in assay [7] was more than 100 µM.

Take `CN(C)CCNC(=O)c1cccc2cc3ccc4ccccc4c3nc12`: the TGI in assay [1] was 0.56 µM; in assay [2], 0.267 µM; in assay [3] it was 0.25 µM; in assay [8], 1.05 µM; in assay [4], more than 100 µM; in assay [5], 0.76 µM. Further, the TGI worked out at 0.267 µM in assay [6] and 0.23 µM in assay [7].

`CC1=C(C(=O)CC(=O)C(=O)Nc2ccccc2C)Sc2ccccc2N1`: the TGI in assay [1] is more than 100 µM; in assay [2], more than 100 µM; in assay [3], more than 61.6 µM; in assay [8], more than 55.8 µM; in assay [4] it was more than 100 µM; in assay [5] it was more than 100 µM. Besides, the TGI in assay [6] and in assay [7] was more than 100 µM in each case.

Turning to `c1ccc2c(c1)[O][Sn][O]2`, the GI50 is 11 µg/mL in assay [1]; 1.12 µg/mL in assay [2]; more than 150 µg/mL in assay [3]; 19.8 µg/mL in assay [8]; 91.6 µg/mL in assay [4]; 90.9 µg/mL in assay [5]. The GI50 in assay [6] was 23.4 µg/mL; in assay [7] it was 35.5 µg/mL. The TGI in assay [1], in assay [2], in assay [3], in assay [8], in assay [4] and in assay [5] was more than 150 µg/mL each time. For the same molecule, the TGI in assay [6] is 120 µg/mL; in assay [7], more than 150 µg/mL.

Regarding `CCOC(=O)COc1cccc2occc(=O)c12`, the TGI in assay [1], in assay [2], in assay [3], in assay [8], in assay [4] and in assay [5] was more than 100 µM in each case. The molecule also returned a TGI in assay [7] of more than 100 µM.

For `Cn1cc(NC(=O)c2cc(NC(=O)CCCCCCCC(=O)Nc3cc(C(=O)Nc4cc(C(=O)NCCC(=N)N)n(C)c4)n(C)c3)cn2C)cc1C(=O)NCCC(=N)N`, the TGI in assay [1] was 36.8 µM; in assay [2] it was 86.1 µM; in assay [3], 26 µM; in assay [8] it was 42.3 µM; in assay [4], more than 100 µM; in assay [5], 20.1 µM. In addition, the TGI in assay [6] was 41.3 µM; in assay [7], 36.8 µM.

For `COc1ccc2c3c(c(C(=O)O)oc13)C(CCC(=O)O)CC2` (configuration not stated), the TGI in assay [1], in assay [3], in assay [8], in assay [6] and in assay [7] was more than 100 µM throughout.

As to `NNC(=O)N/N=C1\CNC(=O)C(=O)C1c1nc2ccccc2s1` (configuration not stated), the TGI in assay [1], in assay [2], in assay [3], in assay [8], in assay [4] and in assay [5] was more than 100 µM in each case. Besides, the TGI in assay [6] and in assay [7] was more than 100 µM in each case.

Consider `O=c1c2cccc3cccc(c4n1CCCN=4)c32`, for which the TGI in assay [1], in assay [2], in assay [3], in assay [8], in assay [4] and in assay [5] was more than 100 µM each time. Moreover, the TGI in assay [6] and in assay [7] was more than 100 µM throughout.

Turning to `CC(C)(C)c1cc(C(OCCl)(C(F)(F)F)C(F)(F)F)c2c(c1)C(C(F)(F)F)(C(F)(F)F)OC21c2ccccc2C(=O)c2ccccc21`, the TGI in assay [1], in assay [3], in assay [8], in assay [4], in assay [5] and in assay [6] was more than 100 µM each time.

Turning to `Cc1c(C)c2ccc(OC(C)C(=O)O)cc2oc1=O` (configuration not stated), the TGI in assay [1], in assay [2], in assay [3], in assay [8], in assay [4] and in assay [5] was more than 100 µM throughout. Besides, the TGI in assay [6] and in assay [7] was more than 100 µM throughout.

As to `Cc1csc(CCC(N)C(=O)O)n1` (configuration not stated), the TGI in assay [1], in assay [2], in assay [3], in assay [8], in assay [4] and in assay [5] was more than 100 µM throughout. Also, the TGI in assay [6] and in assay [7] was more than 100 µM throughout.

In the case of `O=S(=O)(Cc1ccccc1)SCc1ccccc1`, the TGI in assay [1] is more than 100 µM; in assay [2], more than 27.5 µM; in assay [3] it was 34.3 µM; in assay [8], 35.4 µM; in assay [4], 33.5 µM; in assay [5], 73.6 µM. The results for the TGI in assay [6] and in assay [7] were 65.2 µM and 55.8 µM, respectively.

Take `CC(=O)OC1COC(Oc2c(C)c3c4c(c2O)[C@@H](C)CC[C@@H]4[C@@H](C)C[C@H]3C=C(C)C)C(O)C1O` (some centres not stated): the GI50 in assay [1] is 16.8 µM; in assay [2], 11.1 µM; in assay [3] it was 26.4 µM; in assay [8] it was 16.1 µM; in assay [4], 10.3 µM; in assay [5], 13.2 µM. Moreover, the GI50 was 19.8 µM in assay [6] and 18.8 µM in assay [7]. Besides, the TGI was 43.7 µM in assay [1]; 35.6 µM in assay [2]; more than 100 µM in assay [3]; 41.3 µM in assay [8]; 27.1 µM in assay [4]; 27.3 µM in assay [5]. The results for the TGI in assay [6] and in assay [7] were 42.3 µM and 39.4 µM, respectively.

Consider `O=c1[nH]c(=O)n(C2CC(O)C(O)C(CO)O2)cc1F` (configuration not stated), for which the TGI in assay [1], in assay [2], in assay [3], in assay [8], in assay [4] and in assay [5] was more than 100 µM each time. Moreover, the TGI in assay [6] and in assay [7] was more than 100 µM in each case.

As for `O=C1c2ccoc2C(=O)c2oc(=O)ccc21`, the TGI in assay [1] was 42 µM; in assay [2], 15.7 µM; in assay [3] it was more than 55.4 µM; in assay [8] it was 10.3 µM; in assay [4] it was 22.4 µM; in assay [5], 7.84 µM. The TGI in assay [6] came out at 15.1 µM; in assay [7], 31.5 µM.

With `NC(=O)C(=O)Cc1nc2ccccc2s1`, the TGI in assay [1], in assay [2], in assay [3], in assay [8], in assay [4] and in assay [5] was more than 100 µM in each case. Further, the TGI in assay [6] is more than 100 µM.

Consider `CC(=O)c1c(O)c2c([nH]c1=O)CCCC2`, for which the TGI in assay [1] was more than 100 µM; in assay [2] it was more than 100 µM; in assay [3] it was more than 100 µM; in assay [4], more than 100 µM; in assay [5] it was more than 100 µM; in assay [6], 67.6 µM. This molecule registered a TGI in assay [7] of 43.3 µM.
